Like-named read-outs stand apart in the source and are kept apart here.
Assays:
[1] = tested on: SARS CoV-2 (USA_WA1/2020); assay type: cell-based
[2] = tested on: EGFP expression; assay: doxycycline-induced EGFP reporter expression (microscopy / flow cytometry) in transduced Vero-E6 cells; assay type: cell-based
[3] = tested on: c19orf66 protein expression; assay: doxycycline-induced c19orf66 protein expression by western blot in transduced Vero-E6 cells; assay type: cell-based; conditions: bulk sorted cells re-induced with 0, 0.8, 4, 20, 100 or 500 ng/mL
[4] = tested on: Vero E6 cells; conditions: African green monkey; for Cell Health: cell death / Cell Health: cells death: 48 h

Compound	number of infected cells (% infected cells) [1]	viral inhibition relative to remdesivir control [1]	EGFP: doxycycline concentration at which EGFP is visible ([2]; Bulk Sorted, 48 hours)	EGFP: doxycycline concentration giving strong signal ([2]; Bulk Sorted, 48 hours)	EGFP: doxycycline concentration at which EGFP is visible ([2]; Bulk Sorted, 96 hours)	EGFP: doxycycline concentration at which EGFP is visible ([2]; Clone 9, 48 hours)	EGFP: doxycycline concentration at which EGFP is visible ([2]; Clone 9, 96 hours)	EGFP: doxycycline concentration at which EGFP is visible ([2]; Clone 21, 48 hours)	EGFP: doxycycline concentration giving strong signal ([2]; Clone 21, 48 hours)	EGFP: doxycycline concentration at which EGFP is visible ([2]; Clone 21, 96 hours)	doxycycline concentration inducing c19orf66 (western blot) [3]	Cell Health: cell death ([4]; 10 ng/mL)	Cell Health: cell death ([4]; 20 ng/mL)	Cell Health: cells death ([4]; 50 ng/mL)	Cell Health: cells death ([4]; 100 ng/mL)	Cell Health: doxycycline concentration at which cell death is observed ([4]; 96 h)
C19orf66: Chromosome 19 Open Reading Frame 66 protein, interferon-stimulated gene; here expressed from a doxycycline-inducible lentiviral construct	reduction	comparable to remdesivir														
C[C@H]1c2cccc(O)c2C(=O)C2=C(O)[C@]3(O)C(=O)C(C(N)=O)=C(O)[C@@H](N(C)C)[C@@H]3[C@@H](O)[C@@H]21 [doxycycline]			10 ng/mL	20 ng/mL	Visible at ≧ 10 ng/mL	Visible at 10 ng/mL and higher concentrations.	Visible at ≧ 10 ng/mL	5 ng/mL	10 ng/mL	Visible at ≧ 10 ng/mL	at least 20 ng/mL	50% cell death at 10 ng/mL and worse at higher concentrations.	50%	20%	40%	10 ng/mL
